The target of test [1] is T1, ACE (Oryctolagus cuniculus, UniProt P12822).
T1 construct: purchased Sigma-Aldrich (Shanghai, China)
T1 sequence (P12822 34-1310): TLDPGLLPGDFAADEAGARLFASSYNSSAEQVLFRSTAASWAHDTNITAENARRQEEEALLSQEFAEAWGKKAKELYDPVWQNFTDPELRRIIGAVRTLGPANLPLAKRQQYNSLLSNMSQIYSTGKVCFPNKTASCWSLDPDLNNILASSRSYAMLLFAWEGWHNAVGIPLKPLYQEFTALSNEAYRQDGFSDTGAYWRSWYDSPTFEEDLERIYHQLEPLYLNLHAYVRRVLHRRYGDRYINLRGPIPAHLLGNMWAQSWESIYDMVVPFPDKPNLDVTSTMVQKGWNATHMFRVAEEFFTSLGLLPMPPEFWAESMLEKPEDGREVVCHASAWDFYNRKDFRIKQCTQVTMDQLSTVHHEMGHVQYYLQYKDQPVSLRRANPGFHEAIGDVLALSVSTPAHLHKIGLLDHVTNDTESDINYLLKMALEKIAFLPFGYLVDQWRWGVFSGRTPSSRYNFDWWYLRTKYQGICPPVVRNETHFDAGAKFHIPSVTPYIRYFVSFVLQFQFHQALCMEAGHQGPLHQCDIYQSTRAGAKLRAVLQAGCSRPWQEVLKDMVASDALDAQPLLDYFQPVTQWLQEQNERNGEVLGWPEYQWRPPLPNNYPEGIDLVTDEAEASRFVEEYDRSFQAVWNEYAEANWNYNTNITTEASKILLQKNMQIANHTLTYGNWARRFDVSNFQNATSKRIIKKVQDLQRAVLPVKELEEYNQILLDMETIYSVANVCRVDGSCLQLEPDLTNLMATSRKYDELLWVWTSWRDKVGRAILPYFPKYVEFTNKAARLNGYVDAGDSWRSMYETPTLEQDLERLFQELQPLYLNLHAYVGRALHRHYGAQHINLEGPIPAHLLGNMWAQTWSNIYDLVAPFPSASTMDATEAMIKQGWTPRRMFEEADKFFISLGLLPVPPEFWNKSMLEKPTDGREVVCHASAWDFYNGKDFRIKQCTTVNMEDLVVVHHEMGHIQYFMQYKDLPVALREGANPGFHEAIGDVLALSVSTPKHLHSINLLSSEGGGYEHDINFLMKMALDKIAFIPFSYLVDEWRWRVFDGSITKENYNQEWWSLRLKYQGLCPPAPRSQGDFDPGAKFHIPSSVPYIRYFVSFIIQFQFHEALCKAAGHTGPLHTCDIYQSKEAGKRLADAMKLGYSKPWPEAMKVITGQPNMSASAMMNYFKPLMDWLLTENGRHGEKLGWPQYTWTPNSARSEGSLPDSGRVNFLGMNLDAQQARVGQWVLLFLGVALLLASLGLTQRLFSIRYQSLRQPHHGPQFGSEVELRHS
The test can be described thus: Inhibition pattern by Lineweaver-Burk plot. In kind it is biochemical. To be noted: HHL 1-5 mM, HLHT 0, 295.86, 591.72 μM, GWA 0, 98.62, 197.24 μM, pre-incubated 37 °C 10 min, 5 min incubation with HHL, HPLC 228 nm. Here is the method:
The inhibitory patterns of purified peptides HLHT and GWA on ACE were evaluated by incubating various concentrations (1, 2, 3, 4, and 5 mM) of HHL with ACE in the absence and presence of inhibitory peptides. The concentrations of HLHT were set as 0, 295.86, and 591.72 μM while those of GWA were set as 0, 98.62, and 197.24 μM. The purified ACE inhibitory peptide (30 µL) at various concentrations and ACE solution (30 µL) were mixed and pre-incubated at 37 °C for 10 min. Subsequently, HHL (40 µL) was added and incubated for 5 min at 37 °C. The reaction was terminated by adding 1 M HCl (150 µL). The released hippuric acid (HA) was quantified using HPLC at 228 nm. The ACE inhibitory pattern in the presence of the inhibitor was determined using the Lineweaver–Burk plot, where the reciprocal of HHL concentration was used as the independent variable (X-axis) and the reciprocal of production rate of HA as the dependent variable (Y-axis).

For test [2], the target named is T2, Angiotensin-I-converting enzyme (ACE) (Oryctolagus cuniculus, UniProt P12822).
T2 construct: purchased Sigma-Aldrich (Shanghai, China)
T2 sequence (P12822 34-1310): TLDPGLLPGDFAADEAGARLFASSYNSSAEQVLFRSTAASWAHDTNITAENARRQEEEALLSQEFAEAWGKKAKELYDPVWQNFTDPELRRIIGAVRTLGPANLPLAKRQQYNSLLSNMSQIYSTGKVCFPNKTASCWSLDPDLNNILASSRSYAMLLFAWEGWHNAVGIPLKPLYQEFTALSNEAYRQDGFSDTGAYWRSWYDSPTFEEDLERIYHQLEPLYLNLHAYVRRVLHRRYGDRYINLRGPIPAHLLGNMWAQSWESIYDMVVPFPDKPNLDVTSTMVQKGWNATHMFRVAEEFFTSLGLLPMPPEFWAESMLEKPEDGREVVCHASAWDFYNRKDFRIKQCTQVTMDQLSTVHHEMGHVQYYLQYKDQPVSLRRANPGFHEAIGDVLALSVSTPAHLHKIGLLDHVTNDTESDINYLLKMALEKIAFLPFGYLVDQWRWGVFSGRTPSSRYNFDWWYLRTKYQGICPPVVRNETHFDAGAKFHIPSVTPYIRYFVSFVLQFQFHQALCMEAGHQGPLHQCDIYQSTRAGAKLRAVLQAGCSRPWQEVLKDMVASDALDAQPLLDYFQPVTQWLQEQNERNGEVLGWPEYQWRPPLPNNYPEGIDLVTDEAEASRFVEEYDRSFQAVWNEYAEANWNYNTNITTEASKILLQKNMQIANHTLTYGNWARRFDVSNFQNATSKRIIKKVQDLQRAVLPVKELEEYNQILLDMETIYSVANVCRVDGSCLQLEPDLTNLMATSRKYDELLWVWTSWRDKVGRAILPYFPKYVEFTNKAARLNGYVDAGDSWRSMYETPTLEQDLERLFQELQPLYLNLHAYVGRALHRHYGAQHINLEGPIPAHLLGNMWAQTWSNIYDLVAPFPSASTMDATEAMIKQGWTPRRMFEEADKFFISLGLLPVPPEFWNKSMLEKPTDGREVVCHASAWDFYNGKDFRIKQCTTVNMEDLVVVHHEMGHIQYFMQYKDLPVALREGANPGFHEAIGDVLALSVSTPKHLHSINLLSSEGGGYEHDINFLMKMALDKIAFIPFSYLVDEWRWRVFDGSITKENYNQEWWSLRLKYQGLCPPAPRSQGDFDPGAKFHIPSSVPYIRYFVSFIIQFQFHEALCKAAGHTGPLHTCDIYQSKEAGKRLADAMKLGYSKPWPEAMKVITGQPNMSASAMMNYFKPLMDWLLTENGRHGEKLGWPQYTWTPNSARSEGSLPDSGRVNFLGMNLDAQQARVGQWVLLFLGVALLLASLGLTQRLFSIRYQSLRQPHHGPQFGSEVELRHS
The test can be described thus: In vitro assay of ACE inhibitory activity. In kind it is biochemical. To be noted: triplicate, mean ± SD; for ACE inhibitory activity: 0.54 mg/mL protein concentration, second RP-HPLC fractions; for IC50: logarithmic regression. Here is the method: ACE inhibitory activity in vitro was measured according to the reported method. The activity was determined for each step of separation, and fraction with the highest ACE inhibitory activity was collected for further purification. The IC50 value (the concentration of peptide inhibiting 50% of enzyme activity) was determined by logarithmic regression analysis.
(§1) All the experiments were performed in triplicate and mean values with ± SD (standard deviation) were reported. All data were analyzed by one-way ANOVA, using SPSS 17.0 software (Chicago, IL, USA). A value of p < 0.05 was considered statistically significant.

The next test concerns SD rats. Description: Antihypertensive activity in SD rats, SBP and DBP after intravenous administration. Type of test: in vivo. The settings on record: 10 mg/kg. On the procedure: The antihypertensive efficacy of POMPH was evaluated in male SD rats (10 weeks old, 250 ± 30 g body weight, specific pathogen-free, provided by the animal experimental center of Guangxi medical University, China). All rats were cared and fed following the standards for laboratory animals established by People’s Republic of China (GB14925-2001) and animal handling followed the Declaration of Helsinki and the Guiding Principles in the Care and Use of Animals. The rats were exposed to intraperitoneal injection L-NNA (L-nitro-arginine) once a day for four weeks prior to the experiments. The POMPH at 10 mg/kg, dissolved in a vehicle of 0.9% NaCl, were intravenously administered. The concentration of HLHT and GWA in POMPH were 1.8 µg/mg and 1.2 µg/mg, respectively. The efficacy of POMPH on lowering SBP and diastolic blood pressure (DBP) was compared to that of captopril (10 mg/kg). Control rats were administrated with the same volume of saline solution. SBP and DBP were determined by the noninvasive tail cuff method using BP-2010 (Softron Beijing biotechnology Co., Ltd) at 0 min (before) and 5, 10, 20 and 45 min after the administration.
as §1

The target in test [3] is T1, ACE. To be noted: cited from earlier work. The text has this:
Table 2 Summary of ACE inhibitory peptides having similar structure with purified peptides. | column: IC50 (μM) || Table 3 Inhibition pattern of ACE inhibitory peptides derived from marine products. | column: Inhibition Pattern; IC50 (μM)

Setting [4] is: synthesized peptide (98% purity).

Like-named read-outs stand apart in the source and are kept apart here. Where a SMILES comes first, the peptide text is derived from it.

As to `C[C@H](NC(=O)[C@H](Cc1c[nH]c2ccccc12)NC(=O)CN)C(=O)O` [GWA, Gly-Trp-Ala] (H-Gly-Trp-Ala-OH), the Inhibition Pattern entry on ACE [1] is given as “competitive inhibition pattern”. For the same molecule, in test [2], the ACE inhibitory activity came to 84.71 ± 1.27%. For the same molecule, the IC50 in test [2] (peptide purified from POMPH) was 109 ± 1.45 µM; in test [2] (setting [4]), 98.9 ± 5.73 µM.

Turning to `CC(C)C[C@H](NC(=O)[C@@H](N)Cc1c[nH]cn1)C(=O)N[C@@H](Cc1c[nH]cn1)C(=O)N[C@H](C(=O)O)[C@@H](C)O` [HLHT, His-Leu-His-Thr] (H-HLHT-OH), the ACE inhibitory activity in test [2] is recorded as 64.73 ± 1.32%. For the same molecule, the IC50 in test [2] (peptide purified from POMPH) came out at 458.1 ± 3.24 µM; in test [2] (setting [4]), 452.2 ± 2.36 µM.

Consider `C[C@H](CS)C(=O)N1CCC[C@H]1C(=O)O` [captopril], for which the “change in SBP vs control, in words” value in the test on SD rats (0-45 min) is reported as “significant decrease in SBP”. Moreover, the “maximum decrease in SBP” value with SD rats (20 min, male L-NNA-treated SD rats, tail cuff) stood at 27.0 mmHg. The “SBP beyond 20 min” value in the test on SD rats (beyond 20 min (to 45 min)) was “remained stable”. In the test on SD rats (in comparison with control group), the “change in DBP vs control, in words” value was “significantly changed in comparison with control group”. In the test on SD rats ("decreased to", 20 min, male L-NNA-treated SD rats, tail cuff), the “DBP after 20 min of intravenous administration” value worked out at 39.5 mmHg.

For the molecule CRQHTLGHNT-QTSIAQ, the “Inhibition Pattern” value on ACE [3] (ref [32]) is listed as “Non-competitive”.

On to CRQHTLGHNT-QTSIAQ (CRQHTLGHNTQTSIAQ), for which, in the test with ACE [3] (ref [32]), the IC50 was 80 µM.

Regarding EVSQGRP, in the test with ACE [3] (ref [32]), the IC50 is 50 µM and the “Inhibition Pattern” value is listed as “Mixed inhibition”.

For FEDYVPLSCF, in the test with ACE [3] (ref [31]), the IC50 is 10.8 µM and the “Inhibition Pattern” value is “Mixed inhibition”.

For GDLGKTTTVSN-WSPPKYKDTP, at ACE [3] (ref [33]), the “Inhibition Pattern” value is given as “Non-competitive”.

With “GDLGKTTTVSN-WSPPKYKDTP (GDLGKTTTVSNWSPPKYKDTP)”, in the test with ACE [3] (ref [33]), the IC50 is 11.3 µM.

As to GWAP, in the test with ACE [3] (ref [28]), the IC50 was 3.86 µM.

Values taken from PMC6723713, “Purification, Characterization and Evaluation of Inhibitory Mechanism of ACE Inhibitory Peptides from Pearl Oyster (Pinctada fucata martensii) Meat Protein Hydrolysate” (Marine Drugs, 2019).
